# Source: patent publication USRE49735E1 (BRISTOL-MYERS SQUIBB COMPANY, priority 2010, dated 2023)
# pEC50: −log10 of the molar value. Values joined by “and” are separate entries in the source; they are usually repeats but may differ in a detail not shown here. Equal entries are not always repeated.
# Target: human mGluR5A (Homo sapiens, UniProt P41594)
# Experiment: mGluR5 FLIPR Assay
# Type: cell-based
# Conditions: positive modulator activity; HEK293 (ZF) cells with human mGluR5A and rat GLAST; Ca++ response to ~EC10 glutamate
# Sequence of human mGluR5A (P41594 21-1180 isoform P41594-2): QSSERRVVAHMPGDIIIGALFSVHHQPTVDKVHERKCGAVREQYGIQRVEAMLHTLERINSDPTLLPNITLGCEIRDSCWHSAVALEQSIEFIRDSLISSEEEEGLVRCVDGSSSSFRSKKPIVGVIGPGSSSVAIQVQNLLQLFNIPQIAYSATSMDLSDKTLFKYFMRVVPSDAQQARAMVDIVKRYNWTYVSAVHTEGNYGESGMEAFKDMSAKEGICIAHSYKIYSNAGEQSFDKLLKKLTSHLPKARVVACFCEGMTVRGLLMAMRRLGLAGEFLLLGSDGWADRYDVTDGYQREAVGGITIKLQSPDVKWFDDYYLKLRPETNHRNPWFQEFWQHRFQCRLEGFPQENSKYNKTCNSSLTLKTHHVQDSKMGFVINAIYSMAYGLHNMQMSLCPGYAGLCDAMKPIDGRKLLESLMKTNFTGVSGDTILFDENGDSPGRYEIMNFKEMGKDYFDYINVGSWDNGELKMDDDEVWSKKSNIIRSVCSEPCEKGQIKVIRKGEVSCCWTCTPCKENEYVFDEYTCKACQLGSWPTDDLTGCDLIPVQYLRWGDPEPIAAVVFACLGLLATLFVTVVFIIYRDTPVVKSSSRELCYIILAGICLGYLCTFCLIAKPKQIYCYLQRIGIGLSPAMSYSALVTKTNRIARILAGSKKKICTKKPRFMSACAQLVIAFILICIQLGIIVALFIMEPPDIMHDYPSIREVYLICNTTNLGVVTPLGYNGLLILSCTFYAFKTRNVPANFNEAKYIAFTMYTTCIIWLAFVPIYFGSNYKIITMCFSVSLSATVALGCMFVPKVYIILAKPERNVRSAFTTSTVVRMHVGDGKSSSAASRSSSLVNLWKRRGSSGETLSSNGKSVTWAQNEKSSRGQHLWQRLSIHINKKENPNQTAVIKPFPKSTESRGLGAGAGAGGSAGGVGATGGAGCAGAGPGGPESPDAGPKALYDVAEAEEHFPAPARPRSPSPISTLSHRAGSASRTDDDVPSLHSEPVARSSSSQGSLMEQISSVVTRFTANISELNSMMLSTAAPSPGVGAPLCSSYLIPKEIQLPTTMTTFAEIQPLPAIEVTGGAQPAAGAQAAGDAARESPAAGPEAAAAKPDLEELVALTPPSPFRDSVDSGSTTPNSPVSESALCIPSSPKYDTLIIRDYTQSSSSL
row,pEC50,Compound
1,> 7.00,"O=C1N[C@H](c2cc(C#Cc3ccccc3)ncc2F)[C@@H](c2cc(F)ccc2F)O1 [Example 301, (4R,5R)-5-(2,5-Difluorophenyl)-4-(5-fluoro-2-(phenylethynyl)pyridin-4-yl)oxazolidin-2-one]"
2,> 7.00,O=C1N[C@H](c2cc(C#Cc3ccccc3)cnc2F)[C@@H](c2cc(F)ccc2F)O1 [Example 302]
3,< 6.00,"COc1ncc(C#Cc2ccccc2)cc1[C@H]1NC(=O)O[C@@H]1c1cc(F)ccc1F [Example 303, (4R,5R)-5-(2,5-Difluorophenyl)-4-(2-methoxy-5-(phenylethynyl)pyridin-3-yl)oxazolidin-2-one]"
4,> 7.00,"O=C1N[C@H](c2cc(C#Cc3ccccc3)ncc2F)[C@@H](c2ccccc2F)O1 [Example 304, (4R,5R)-4-(5-Fluoro-2-(phenylethynyl)pyridin-4-yl)-5-(2-fluorophenyl)oxazolidin-2-one]"
5,< 6.00,"O=C1N[C@@H](c2cncc(C#Cc3ccccc3)c2)[C@H](c2ncco2)O1 [Example 338, (4S,5R)-5-(oxazol-2-yl)-4-(5-(phenylethynyl)pyridin-3-yl)oxazolidin-2-one]"
6,< 6.00,"O=C1N[C@H](c2cncc(C#Cc3ccccc3)c2)[C@@H](c2ncco2)O1 [Example 339, (4R,5S)-5-(oxazol-2-yl)-4-(5-(phenylethynyl)pyridin-3-yl)oxazolidin-2-one]"
7,< 6.00,"Cn1nccc1[C@@H]1OC(=O)N[C@H]1c1cncc(C#Cc2ccccc2)c1 [Example 341, (4S,5R)-5-(1-methyl-1H-pyrazol-5-yl)-4-(5-(phenylethynyl)pyridin-3-yl)oxazolidin-2-one]"
8,> 7.00,"Cn1nccc1[C@H]1OC(=O)N[C@@H]1c1cncc(C#Cc2ccccc2)c1 [Example 342, (4R,5S)-5-(1-methyl-1H-pyrazol-5-yl)-4-(5-(phenylethynyl)pyridin-3-yl)oxazolidin-2-one]"
9,> 7.00,"N#Cc1ccc([C@H]2OC(=O)N[C@@H]2c2cncc(C#Cc3ccccc3)c2)cc1 [Example 365, 4-((4R,5R)-2-Oxo-4-(5-(phenylethynyl)pyridin-3-yl)oxazolidin-5-yl)benzonitrile]"
10,> 7.00,"O=C1NC(c2cccc(C#Cc3ccccc3)c2)C(c2cccc(O)c2)O1 [Example 380, (4R,5R)-5-(3-Hydroxyphenyl)-4-(3-phenylethynyl)phenyl)oxazolidin-2-one]"
11,6.00 to 7.00,"Cc1ccc(C#Cc2cncc([C@H]3NC(=O)O[C@@H]3c3cc(F)ccc3F)c2)cc1 [Example 381, (4R,5R)-5-(2,5-Difluorophenyl)-4-(5-(p-tolylethynyl)pyridin-3-yl)oxazolidin-2-one]"
12,6.00 to 7.00 and 6.27,"COc1ccc(C#Cc2cncc([C@H]3NC(=O)O[C@@H]3c3cc(F)ccc3F)c2)cc1 [Example 382, (4R,5R)-5-(2,5-difluorophenyl)-4-(5-((4-methoxyphenyl)ethynyl)pyridin-3-yl)oxazolidin-2-one]"
13,< 6.00,"O=C1N[C@H](c2cncc(C#Cc3ccc(Cl)c(Cl)c3)c2)[C@@H](c2cc(F)ccc2F)O1 [Example 383, (4R,5R)-4-(5-((3,4-dichlorophenyl)ethynyl)pyridin-3-y1)-5-(2,5-difluorophenyl)oxazolidin-2-one]"
14,< 6.00,"CC(C)(C)c1ccc(C#Cc2cncc([C@H]3NC(=O)O[C@@H]3c3cc(F)ccc3F)c2)cc1 [Example 384, (4R,5R)-4-(5-((4-tert-butylphenyl)ethynyl)pyridin-3-y1)-5-(2,5-difluorophenyl)oxazolidin-2-one]"
15,< 6.00,"O=C1N[C@H](c2cncc(C#Cc3cccc(Cl)c3)c2)[C@@H](c2cc(F)ccc2F)O1 [Example 385, (4R,5R)-4-(5-((3-chlorophenyl)ethynyl)pyridin-3-yl)-5-(2,5-difluorophenyl)oxazolidin-2-one]"
16,< 6.00,"O=C1N[C@H](c2cncc(C#Cc3cccc(C(F)(F)F)c3)c2)[C@@H](c2cc(F)ccc2F)O1 [Example 386, (4R,5R)-5-(2,5-difluorophenyl)-4-(5-((3-(trifluoromethyl)phenyl)ethynyl)pyridin-3-yl)oxazolidin-2-one]"
17,< 6.00,"Cc1cccc(C#Cc2cncc([C@H]3NC(=O)O[C@@H]3c3cc(F)ccc3F)c2)c1 [Example 387, (4R,5R)-5-(2,5-difluorophenyl)-4-(5-(m-tolylethynyl)pyridin-3-yl)oxazolidin-2-one]"
18,6.00 to 7.00,"O=C1N[C@H](c2cncc(C#Cc3ccc(Cl)cc3)c2)[C@@H](c2cc(F)ccc2F)O1 [Example 388, (4R,5R)-4-(5-((4-chlorophenyl)ethynyl)pyridin-3-y1)-5-(2,5-difluorophenyl)oxazolidin-2-one]"
19,< 6.00,"O=C1N[C@H](c2cncc(C#Cc3cc(Cl)cc(Cl)c3)c2)[C@@H](c2cc(F)ccc2F)O1 [Example 389, (4R,5R)-4-(5-((3,5-Dichlorophenyl)ethynyl)pyridin-3-yl)-5-(2,5-difluorophenyl)oxazolidin-2-one]"
20,6.00 to 7.00,"Cc1ccccc1C#Cc1cncc([C@H]2NC(=O)O[C@@H]2c2cc(F)ccc2F)c1 [Example 390, (4R,5R)-5-(2,5-difluorophenyl)-4-(5-(o-tolylethynyl)pyridin-3-yl)oxazolidin-2-one]"
21,< 6.00,"N#Cc1ccc(C#Cc2cncc([C@H]3NC(=O)O[C@@H]3c3cc(F)ccc3F)c2)cc1 [Example 391, 4-((5-((4R,5R)-5-(2,5-difluorophenyl)-2-oxooxazolidin-4-yl)pyridin-3-yl)ethynyl)benzonitrile]"
22,> 7.00,"O=C1N[C@H](c2cncc(C#Cc3ccccc3Cl)c2)[C@@H](c2cc(F)ccc2F)O1 [Example 392, (4R,5R)-4-(5-((2-chlorophenyl)ethynyl)pyridin-3-yl)-5-(2,5-difluorophenyl)oxazolidin-2-one]"
23,< 6.00,"O=C1N[C@H](c2cncc(C#Cc3ccnnc3)c2)[C@@H](c2cc(F)ccc2F)O1 [Example 393, (4R,5R)-5-(2,5-difluorophenyl)-4-(5-(pyridazin-4-ylethynyl)pyridin-3-yl)oxazolidin-2-one]"
24,< 6.00,"O=C1N[C@H](c2cncc(C#Cc3ccncn3)c2)[C@@H](c2cc(F)ccc2F)O1 [Example 394, (4R,5R)-5-(2,5-difluorophenyl)-4-(5-(pyrimidin-4-ylethynyl)pyridin-3-yl)oxazolidin-2-one]"
25,6.00 to 7.00,"O=C1N[C@H](c2cncc(C#Cc3cncnc3)c2)[C@@H](c2cc(F)ccc2F)O1 [Example 395, (4R,5R)-5-(2,5-difluorophenyl)-4-(5-(pyrimidin-5-ylethynyl)pyridin-3-yl)oxazolidin-2-one]"
26,> 7.00,"O=C1N[C@H](c2cncc(C#Cc3cnccn3)c2)[C@@H](c2cc(F)ccc2F)O1 [Example 396, (4R,5R)-5-(2,5-difluorophenyl)-4-(5-(pyrazin-2-ylethynyl)pyridin-3-yl)oxazolidin-2-one]"
27,> 7.00,"O=C1N[C@H](c2cncc(C#Cc3cnccn3)c2)[C@@H](c2cccc(F)c2)O1 [Example 397, (4R,5R)-5-(3-Fluorophenyl)-4-(5-(pyrazin-2-ylethynyl)pyridin-3-yl)oxazolidin-2-one]"
28,6.00 to 7.00 and 6.85,"O=C1N[C@H](c2cncc(C#Cc3cncnc3)c2)[C@@H](c2cccc(F)c2)O1 [Example 398, (4R,5R)-5-(3-fluorophenyl)-4-(5-(pyrimidin-5-ylethynyl)pyridin-3-yl)oxazolidin-2-one]"
